Laboratory results as given in patent US20240123080A1, “CYTOTOXIC COMPOUNDS AND CONJUGATES THEREOF” (Seagen Inc., priority 2022, published 2024).
*1 amine or outer side, *2 acyl side, *3 side chain or, on linkers, in order; H or OH if unused. Where a SMILES comes first, the peptide text is derived from it. [ ]: non-standard residue; d: D form. The star is where a group is joined. ξ: configuration not given here. Dolaproine = CO[C@@H]([C@@H]1CCCN1)[C@@H](C)C(=O)O; Hexanoyl(6-maleimido) = O=C1C=CC(=O)N1CCCCCC(=O)*; Dil = CC[C@H](C)[C@H](NC)[C@@H](CC(=O)O)OC; X11 = C[S+]([O-])NC[C@H](N[*:1])C(=O)[*:2]; PABC = O=C(OCc1ccc(N[*:1])cc1)[*:2]; Tyrosinol = OC[C@H](Cc1ccc(O)cc1)N*; Val(3-OH) = CC(C)(O)[C@H](N)C(=O)O; Doe = c1ccc(C[C@H](N*)c2nccs2)cc1; X1 = C[C@@H](N*)[C@@H](O)c1ccccc1; Hyp = O=C(O)[C@@H]1C[C@@H](O)CN1; NMeT = CN[C@H](C(=O)O)[C@@H](C)O; Cit = NC(=O)NCCC[C@H](N)C(=O)O; Phe(ol) = N[C@H](CO)Cc1ccccc1; NHPhenethyl = c1ccc(CCN*)cc1; X3 = CN1C(=O)OC[C@@H]1C(=O)*; NMeS = CN[C@@H](CO)C(=O)O; dNMeS = CN[C@H](CO)C(=O)O; ξαMeS = CC(N)(CO)C(=O)O; Dap = NC[C@H](N)C(=O)O; Glycolyl = O=C(CO)*; Ms = CS(=O)(=O)*

How the values were obtained:
[1] = LogD, miniaturized 1-octanol/pH 7.4 buffer shake flask method, LC/MS/MS; format: physicochemical
Description: The LogD (distribution coefficient) of the compounds was measured using a miniaturized 1-octanol/pH 7.4 buffer shake flask method followed by LC/MS/MS analysis. Values were determined by measuring the compound partitioned in the organic and buffered layers.

DEL ALCL = assay: In vitro cytotoxicity, cell proliferation assay (CellTiter-Glo, 96 h); format: cell-based; details: auristatin free drug
Description: (§1) The cytotoxicity of free drugs and drug conjugates were measured by a cell proliferation assay employing the protocol described in Promega Corp. Technical Bulletin TB288; and Mendoza et al., 2002, Cancer Res. 62:5485-5488), the methods of which are specifically incorporated by reference herein. Briefly, an aliquot of 40 μl of cell culture containing about 400 cells in medium is deposited in each well of a 384-well, opaque-walled plate. A 10 μL aliquot of free drug or drug conjugate is added to the experimental wells and incubated for 96 h and are then equilibrated to room temperature for approximately 30 minutes whereupon a volume of CellTiter-Glo™ reagent equal to the volume of cell culture medium present in each well is added. The contents are mixed for 2 minutes on an orbital shaker to induce cell lysis and the plate is incubated at room temperature for 10 minutes to stabilize the luminescence signal for recordation.

Karpas299 NHL = assay: as above; format: cell-based; details: Homo sapiens, KARPAS-299, auristatin free drug
Description: as §1

L540cy HL = assay: as above; format: cell-based; details: auristatin free drug
Description: as §1

Sprague Dawley rats = assay: In vivo rat safety study of non-binding (h00) ADCs, hematology and clinical chemistry; details: ADC of the Drug-Linker
Description: In vivo rat safety studies were done in naive female Sprague Dawley rats (Envigo). Studies had 3 animals/group/timepoint and included a vehicle control group (1×PBS pH 7.4). Animals were administered a single dose of 15 or 80 mg/kg of an h00 ADC (DAR=4) via intravenous injection. Blood was drawn at days 5 and day 8. Blood was sampled under isoflurane anesthesia via the jugular vein for periodic hematology analysis on the Sysmex XT-2000iV. At necropsy, blood was collected from the caudal vena cava for hematology and clinical chemistry panels. Clinical chemistry was analyzed on a Beckman Coulter AU680.

SMILES | logD [1] | IC50 (DEL ALCL) [nM] | IC50 (Karpas299 NHL) [nM] | IC50 (L540cy HL) [nM] | Tolerated at 80 mg/kg in rats (Sprague Dawley rats)
CC[C@H](C)[C@@H]([C@@H](CC(=O)N1CCC[C@H]1[C@H](OC)[C@@H](C)C(=O)N[C@H](CO)Cc1ccccc1)OC)N(C)C(=O)[C@@H](NC(=O)[C@H](CO)NC)C(C)C [Example 12] (H-[NMeS]V[Dil][Dolaproine][Phe(ol)]) | 1.2 | 1.1 | 0.3 | 4.8 | –
CC[C@H](C)[C@@H]([C@@H](CC(=O)N1CCC[C@H]1[C@H](OC)[C@@H](C)C(=O)N[C@H](CO)Cc1ccccc1)OC)N(C)C(=O)[C@@H](NC(=O)[C@@H](NC)[C@@H](C)O)C(C)C [Example 13] (H-[NMeT]V[Dil][Dolaproine][Phe(ol)]) | 1.4 | 1.2 | 2.2 | 5 | –
CC[C@H](C)[C@@H]([C@@H](CC(=O)N1CCC[C@H]1[C@H](OC)[C@@H](C)C(=O)N[C@H](CO)Cc1ccccc1)OC)N(C)C(=O)[C@@H](NC(=O)[C@@H](CO)NC)C(C)C [Example 14] (H-[dNMeS]V[Dil][Dolaproine][Phe(ol)]) | 1.1 | 3.5 | 7.4 | 10 | –
CC[C@H](C)[C@@H]([C@@H](CC(=O)N1CCC[C@H]1[C@H](OC)[C@@H](C)C(=O)N[C@H](C)[C@@H](O)c1ccccc1)OC)N(C)C(=O)[C@@H](NC(=O)[C@H](CO)NC)C(C)C [Example 17] (H-[NMeS]V[Dil][Dolaproine]-X1) | 1.1 | 2.5 | 7.6 | 16.2 | –
CC[C@H](C)[C@@H]([C@@H](CC(=O)N1CCC[C@H]1[C@H](OC)[C@@H](C)C(=O)NCCc1ccccc1)OC)N(C)C(=O)[C@@H](NC(=O)[C@H](CO)NC)C(C)C [Example 18] (H-[NMeS]V[Dil][Dolaproine]-NHPhenethyl) | 1.9 | 0.6 | 2.3 | 16 | –
CC[C@H](C)[C@@H]([C@@H](CC(=O)N1CCC[C@H]1[C@H](OC)[C@@H](C)C(=O)N[C@@H](Cc1ccccc1)c1nccs1)OC)N(C)C(=O)[C@@H](NC(=O)[C@H](CO)NC)C(C)C [Example 19] (H-[NMeS]V[Dil][Dolaproine]-Doe) | 2.4 | 0.4 | 0.5 | 2.5 | –
CC[C@H](C)[C@@H]([C@@H](CC(=O)N1CCC[C@H]1[C@H](OC)[C@@H](C)C(=O)N[C@@H](Cc1ccccc1)c1nccs1)OC)N(C)C(=O)[C@@H](NC(=O)[C@H](CO)NC)[C@@H](C)CC [Example 20] (H-[NMeS]I[Dil][Dolaproine]-Doe) | 1.9 | 0.3 | 1 | 4.7 | –
CC[C@H](C)[C@@H]([C@@H](CC(=O)N1CCC[C@H]1[C@H](OC)[C@@H](C)C(=O)N[C@H](C)[C@@H](O)c1ccccc1)OC)N(C)C(=O)[C@@H](NC(=O)[C@@H](N)C(C)(C)O)C(C)C [Example 28] (H-[Val(3-OH)]V[Dil][Dolaproine]-X1) | 2 | 7.8 | 9.4 | 28 | –
CC[C@H](C)[C@@H]([C@@H](CC(=O)N1CCC[C@H]1[C@H](OC)[C@@H](C)C(=O)N[C@H](CO)Cc1ccccc1)OC)N(C)C(=O)[C@@H](NC(=O)[C@@H](N)C(C)(C)O)C(C)C [Example 29] (H-[Val(3-OH)]V[Dil][Dolaproine][Phe(ol)]) | 2 | 12.7 | 13.7 | 58 | –
CC[C@H](C)[C@@H]([C@@H](CC(=O)N1CCC[C@H]1[C@H](OC)[C@@H](C)C(=O)N[C@H](CO)Cc1ccc(O)cc1)OC)N(C)C(=O)[C@@H](NC(=O)[C@@H](N)C(C)(C)O)C(C)C [Example 30] (H-[Val(3-OH)]V[Dil][Dolaproine]-Tyrosinol) | 1.2 | 396 | 481 | > 1000 | –
CC[C@H](C)[C@@H]([C@@H](CC(=O)N1CCC[C@H]1[C@H](OC)[C@@H](C)C(=O)N[C@@H](Cc1ccccc1)c1nccs1)OC)N(C)C(=O)[C@@H](NC(=O)[C@@H](N)C(C)(C)O)C(C)C [Example 31] (H-[Val(3-OH)]V[Dil][Dolaproine]-Doe) | 3.4 | 2.1 | 1.7 | 4.7 | –
CC[C@H](C)[C@@H]([C@@H](CC(=O)N1CCC[C@H]1[C@H](OC)[C@@H](C)C(=O)N[C@H](C)[C@@H](O)c1ccccc1)OC)N(C)C(=O)[C@@H](NC(=O)C[C@@H](N)CO)C(C)C [Example 32] | 0.3 | 64 | 56 | 920 | –
CC[C@H](C)[C@@H]([C@@H](CC(=O)N1CCC[C@H]1[C@H](OC)[C@@H](C)C(=O)N[C@H](C)[C@@H](O)c1ccccc1)OC)N(C)C(=O)[C@@H](NC(=O)C(C)(N)CO)C(C)C (stereo partly drawn) [Example 33] (H-[ξαMeS]V[Dil][Dolaproine]-X1) | 3.2 | 1.8 | 1.7 | 6.4 | –
CC[C@H](C)[C@@H]([C@@H](CC(=O)N1CCC[C@H]1[C@H](OC)[C@@H](C)C(=O)N[C@H](CO)Cc1ccccc1)OC)N(C)C(=O)[C@@H](NC(=O)[C@H]1COC(=O)N1C)C(C)C [Example 45] (X3-V[Dil][Dolaproine][Phe(ol)]) | 1.5 | 8.5 | 40.8 | 272 | –
CC[C@H](C)[C@@H]([C@@H](CC(=O)N1CCC[C@H]1[C@H](OC)[C@@H](C)C(=O)N[C@H](CO)Cc1ccccc1)OC)N(C)C(=O)[C@@H](NC(=O)[C@@H](N)CN[S+](C)[O-])C(C)C (stereo partly drawn) [Example 48] (H-[X11]V[Dil][Dolaproine][Phe(ol)]) | – | 41 | 110 | > 1000 | –
CC[C@H](C)[C@@H]([C@@H](CC(=O)N1CCC[C@H]1[C@H](OC)[C@@H](C)C(=O)N[C@H](CO)Cc1ccccc1)OC)N(C)C(=O)[C@@H](NC(=O)[C@@H]1C[C@@H](O)CN1)C(C)C [Example 49] (H-[Hyp]V[Dil][Dolaproine][Phe(ol)]) | – | 32 | 35 | 76 | –
CC[C@H](C)[C@@H]([C@@H](CC(=O)N1CCC[C@H]1[C@H](OC)[C@@H](C)C(=O)N[C@H](CO)Cc1ccccc1)OC)N(C)C(=O)[C@@H](NC(=O)[C@@H](N)CNS(C)(=O)=O)C(C)C [Example 50] (H-[Dap](Ms)V[Dil][Dolaproine][Phe(ol)]) | – | > 1000 | > 1000 | > 1000 | –
CC[C@H](C)[C@@H]([C@@H](CC(=O)N1CCC[C@H]1[C@H](OC)[C@@H](C)C(=O)N[C@H](CO)Cc1ccccc1)OC)N(C)C(=O)[C@@H](NC(=O)[C@@H](N)CNC(=O)CO)C(C)C [Example 51] (H-[Dap](Glycolyl)V[Dil][Dolaproine][Phe(ol)]) | – | 93 | 224 | > 1000 | –
CC[C@H](C)[C@@H]([C@@H](CC(=O)N1CCC[C@H]1[C@H](OC)[C@@H](C)C(=O)NC(CO)Cc1nccs1)OC)N(C)C(=O)[C@@H](NC(=O)[C@H](CO)N(C)C)C(C)C (stereo partly drawn) [Example 52] | – | 43 | 58 | 438 | –
CC[C@H](C)[C@@H]([C@@H](CC(=O)N1CCC[C@H]1[C@H](OC)[C@@H](C)C(=O)NC(CO)Cn1ccnn1)OC)N(C)C(=O)[C@@H](NC(=O)[C@H](CO)N(C)C)C(C)C (stereo partly drawn) [Example 53] | – | > 1000 | > 1000 | > 1000 | –
CC[C@H](C)[C@@H]([C@@H](CC(=O)N1CCC[C@H]1[C@H](OC)[C@@H](C)C(=O)NC(CCO)Cc1ccccc1)OC)N(C)C(=O)[C@@H](NC(=O)[C@H](CO)N(C)C)C(C)C (stereo partly drawn) [Example 54] | – | 7 | 6 | 274 | –
CC[C@H](C)[C@@H]([C@@H](CC(=O)N1CCC[C@H]1[C@H](OC)[C@@H](C)C(=O)NC(Cc1ccccc1)c1cccs1)OC)N(C)C(=O)[C@@H](NC(=O)[C@H](CO)N(C)C)C(C)C (stereo partly drawn) [Example 55] | – | 0.8 | 1 | 16 | –
CC[C@H](C)[C@@H]([C@@H](CC(=O)N1CCC[C@H]1[C@H](OC)[C@@H](C)C(=O)NC(Cc1ccccc1)c1ncco1)OC)N(C)C(=O)[C@@H](NC(=O)[C@H](CO)N(C)C)C(C)C (stereo partly drawn) [Example 56] | – | 1 | 0.9 | 24 | –
CC[C@H](C)[C@@H]([C@@H](CC(=O)N1CCC[C@H]1[C@H](OC)[C@@H](C)C(=O)N[C@@H](Cc1ccccc1)[C@@H](O)CO)OC)N(C)C(=O)[C@@H](NC(=O)[C@H](CO)N(C)C)C(C)C [Example 57] | – | 4 | 3 | 49 | –
CC[C@H](C)[C@@H]([C@@H](CC(=O)N1CCC[C@H]1[C@H](OC)[C@@H](C)C(=O)N[C@H](CO)Cc1ccccc1)OC)N(C)C(=O)[C@@H](NC(=O)[C@H](CO)N(C)C(=O)OCc1ccc(NC(=O)[C@H](CCCNC(N)=O)NC(=O)[C@@H](NC(=O)CCCCCN2C(=O)C=CC2=O)C(C)C)cc1)C(C)C [Example 61] ({Hexanoyl(6-maleimido)}-V[Cit][PABC][NMeS]V[Dil][Dolaproine][Phe(ol)]) | – | – | – | – | Yes
